Test results: patent US20190256499A1, “SUBSTITUTED QUINOXALINE DERIVATIVES AS INHIBITORS OF PFKFB” (priority 2016, published 2019)
In brackets after ≈: the same amount, converted by molar mass. Where two headings read alike, the source gives them in different places.

Columns and labels:
[1] = molecular target: T1, Human recombinant His-tagged PFKFB3 (Homo sapiens, UniProt Q16875); experiment: PFKFB3 IC50 determination assay (modified ADP-Glo in vitro kinase assay); assay type: biochemical; details: ATP 20 μM, fructose-6-phosphate 2 μM, 2 h, rt
T1 construct: His; made in house
T1 sequence (Q16875 whole entry): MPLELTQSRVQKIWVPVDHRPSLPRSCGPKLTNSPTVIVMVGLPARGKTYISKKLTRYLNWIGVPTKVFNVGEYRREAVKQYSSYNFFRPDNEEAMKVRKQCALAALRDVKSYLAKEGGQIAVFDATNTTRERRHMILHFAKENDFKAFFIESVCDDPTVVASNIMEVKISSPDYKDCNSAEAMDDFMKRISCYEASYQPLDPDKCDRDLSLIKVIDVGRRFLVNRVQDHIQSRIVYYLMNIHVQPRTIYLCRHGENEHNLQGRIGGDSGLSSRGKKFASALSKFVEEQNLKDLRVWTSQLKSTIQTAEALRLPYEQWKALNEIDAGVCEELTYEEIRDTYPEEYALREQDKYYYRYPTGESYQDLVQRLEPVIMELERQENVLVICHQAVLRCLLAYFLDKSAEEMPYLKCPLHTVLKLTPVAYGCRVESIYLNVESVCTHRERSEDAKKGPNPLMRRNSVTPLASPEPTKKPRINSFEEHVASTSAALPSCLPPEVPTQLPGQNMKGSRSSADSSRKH
Protocol: In vitro kinase assay used to determine IC50 values for tested inhibitors is based on a modified ADP-Glo™ system (Promega) and consists of two parts:
1. Kinase reaction—performed in optimized conditions. At this step PFKFB3 phosphorylates its substrate fructose-6-phosphate using ATP as a source of phosphate to produce fructose-2,6-bisphosphate and ADP. Reaction is performed at Km values for ATP and substrate using optimized buffer composition and time of the reaction. Human recombinant His-tagged PFKFB3 (PFKFB3 BATCH II SEC) with confirmed activity is produced and purified in-house. 2. Detection of ADP as a product of the reaction using ADP-Glo™ system. This part is conducted by using the commercially available kit ADP-Glo™ Kinase Assay (Promega, cat. No# V9103) according to manufacturer's instruction, modified by 5× dilutions of assay reagents (both ADP-Glo™ Reagent and Kinase Detection Solution). Reproducibility and reliability of this modification is confirmed in an optimization process.
Test compounds are dissolved in DMSO and then transferred to the V-bottom 96-well plate. For IC50 determination ten 10× serial dilutions starting from 100 μM are prepared.
Two mixes are prepared on ice: Mix 1—containing appropriate kinase amount in 2× reaction buffer (100 mM TRIS pH 8.0) and Mix 2—containing 2.31× concentrated substrate (Fructose-6-phosphate) and ATP in MilliQ water. 15 μL per well of Mix 1 is transferred to assay wells of 96-well white plate. Next, 2 μl of 15× concentrated test compound in DMSO is added to Mix 1 for 20 min pre-incubation, followed by addition of Mix 2 (13 μl/well). Total reaction volume is 30 μL per well. Samples are tested in duplicates. Final concentration of DMSO in the reaction is 6.7%. Conditions needed for performing PFKFB3 (PFKFB3 BATCH II SEC) in vitro kinase assay are given below:
This protocol is based on Technical Bulletin, ADP-Glo™ Kinase Assay (Promega) and is adapted to 96-well plate containing 30 μL reaction mixture:
30 μL of 5× diluted ADP-Glo™ Reagent is added to each well of 96-well plate containing 30 μL of reaction mixture. The plate is incubated for 90 minutes on a shaker at rt. 60 μL of 5× diluted Kinase Detection Solution is added to each well of 96-well plate containing 60 μL of the solution (ratio of kinase reaction volume to ADP-Glo™ Reagent volume to Kinase Detection Solution volume is maintained at 1:1:2). Plate is incubated for 40 minutes on a shaker at rt, protected from light. Luminescence is measured in the plate reader Synergy 2 (BioTek).
Luminescent readouts for compounds tested in 10 concentrations (routinely from 100 μM to […], […] serial dilutions) in duplicates, as well as for positive control, are first normalized to no-substrate negative control by its subtraction. In the next step, % of normalized positive control is calculated for each data point and plotted against test compound concentration:
% of control—percent of positive control normalized to no-substrate negative control Lumcpd—luminescence of test compound Lumneg—luminescence of no-substrate negative control Lumpos—luminescence of positive control
IC50 parameter is determined by the GraphPad Prism 5.0 software [log(inhibitor) vs. response—Variable slope (four parameters)].

[2] = Microsomal stability (intrinsic clearance), mouse liver microsomes; assay type: in vitro ADME; set-up: microsomal CLint: dose or concentration left out as unconfirmed; details: for microsomal CLint: mouse, liver microsomes, pH 7.4, mouse liver microsomes
Source text: (§1) A microsomal stability assay is used to measure in vitro clearance (Clint). The assay involves measuring the rate of disappearance of a compound due to its intrinsic attitude to be metabolized (“intrinsic” meaning that the disappearance is not affected by other properties like permeability, binding etc. that play a role when quantifying in vivo clearance). The microsomal stability (intrinsic clearance, Clint) and thus metabolic stability is generally given as μl/min/mg protein. It can be visualized as the volume of solution that 1 mg of microsomes is able to clear of the compound in one minute.
(§2) A Tecan Genesis workstation (RSP 150/8) was used for to perform the microsomal incubations. Analysis was carried out using a Waters ACQUITY UPLC system coupled to an ABSciex API3000 mass spectrometer. Data analysis was performed using Assay Explorer (Symyx).
(§3) Mobile phases: A=0.1% formic acid in water; B=acetonitrile
(§4) Flow rate: 0.750 mL/min; Detection: ESI, MRM; Injection: 10 μL; Column temperature: 50° C.
(§5) Potassium phosphate buffer: 0.05 M potassium phosphate buffer pH 7.4 containing 1 mM MgCl2 NADPH (nicotinamide adenine dinucleotide phosphate): 22.5 mg NADPH-Na4 in 1.8 ml potassium phosphate buffer Acetonitrile: 50 Vol % acetonitrile (1 volume acetonitrile, 1 volume water) DMSO: 20 Vol % DMSO in water Stock solution of 20 mg/ml human or mouse liver microsomes (protein)/ml in phosphate buffer Stock solution of 10 mM compound in 100% DMSO

[3] = Microsomal stability (intrinsic clearance), human liver microsomes; assay type: in vitro ADME; set-up: microsomal CLint: dose or concentration left out as unconfirmed; details: for microsomal CLint: human, liver microsomes, pH 7.4, human liver microsomes
Source text: as §1, §2, §3, §4, §5

[4] = Kinetic solubility; assay type: physicochemical; details: phosphate buffer 20 mM pH 7.4, 2% DMSO, room temperature; for solubility kinetic at 120 min: phosphate buffer, pH 7.4, aqueous buffer, kinetic from dmso stock
Protocol: Kinetic solubility of compounds of the present invention were tested according the following procedure.
(a) Buffer Solution Phosphate Buffer 20 mM pH 7.4 is prepared using Sorensen Phosphate Buffer 0.2 M pH 7.4 (EMS) in a 1000 mL volumetric flask (b) 2% DMSO in Phosphate Buffer 20 mM pH 7.4 is prepared by using 1 mL Dimethylsulfoxide (Merck) and 49 ml Sorensen Phosphate Buffer 20 mM pH 7.4 (c) Acetonitrile/Methanole/Eluent A (1:1:2; v/v/v) is prepared by using 50 mL Acetonitrile (Merck), 50 mL Methanol (Merck) and 100 mL Eluent A (d) Eluent A is prepared by using 1 mL Formic Acid (Merck) and 999 mL Ultrapure water (e) Eluent B is prepared by using 1 mL Formic Acid (Merck) and 999 mL Acetonitrile (Merck) (f) Filtration plate: Millipore MultiScreen HTS HV (0.45 μm) 96 Well (Millipore)
98 μL buffer solution (a) is added into a well of a 96 well filtration plate (f). Then 2 μL of 10 mM test compound solution in DMSO (Remp tube) is added. The filtration plate is incubated at room temperature for 120 minutes while agitating at 250 rpm and centrifuged with the PP-Plate (g) as receiver plate below (2500 rpm, 3 min). The 50 μL of filtrate is taken from the receiver plate and mixed with 50 μL of 2% DMSO in buffer pH 7.4 solution (b) (dilution factor=2) in a HPLC Vial (i)+(j).
Standard is prepared by diluting 2 μL of the same 10 mM test compound solution (Remp tube) diluted with 198 μL Acetonitrile/Methanole/Eluent A (1:1:2; v/v/v) (c) to prepare a 100 μM standard solution in a HPLC Vial (i)+(j).
Column temperature: 37° C. Autosampler: room temperature (approx. 25° C.) Gradient programme: […]
Injection volume: 10 μL Wavelength: Suitable wavelength (maximum sensitivity) selected out of wavelength range of 190-400 nm using a DAD detector.
L [μg/mL]=(area sample*concentration standard*dilution factor sample)/(area standard*dilution factor standard)
S [mol/L]=[…] Calculation: […]

[5] = human recombinant PFKFB3 25 nM, read-out: PFKFB IC50
[6] = PFKFB IC50, human recombinant PFKFB3 25 nM

Cn1ccc2ccc(-c3cc(NC(c4cccnc4)c4ccc(=O)[nH]n4)cc4nccnc34)cc21 (stereo not drawn) [Example 1, 6-{[8-(1-Methyl-1H-indol-6-yl)-quinoxalin-6-ylamino]-pyridin-3-yl-methyl}-2H-pyridazin-3-one] showed an IC50 [1, 5] of 32 nM, a microsomal CLint [2] of 122 µL/min/mg and a microsomal CLint [3] of 78 µL/min/mg. The solubility kinetic at 120 min [4] was 69 µM (≈ 31.7 µg/mL).
Cn1cc([C@@H](Nc2cc(-c3ccc4ccn(C)c4c3)c3nccnc3c2)c2cccnc2)cn1 (single isomer, unassigned) [Example 17] showed an IC50 [1, 5] of 120 nM, a microsomal CLint [2] of 95 µL/min/mg and a microsomal CLint [3] of 172 µL/min/mg. It also gave a solubility kinetic at 120 min [4] of 42 µM (≈ 18.7 µg/mL).
With COc1ccc(C(Nc2cc(-c3ccc4ccn(C)c4c3)c3nccnc3c2)c2cnnn2C)cn1 (racemic) [Comparative Example 1, [(6-Methoxy-pyridin-3-yl)-(3-methyl-3H-[1,2,3]triazol-4-yl)-methyl]-[8-(1-methyl-1H-indol-6-yl)-quinoxalin-6-yl]-amine, reference compound] the IC50 [1, 6] was 25 nM, the microsomal CLint [2] was 188 µL/min/mg and the microsomal CLint [3] was 163 µL/min/mg.
CC(C)[C@H](Nc1cc(-c2ccc3ccn(C)c3c2)c2nccnc2c1)c1cccnc1 (single isomer, unassigned) [Example 21] showed an IC50 [1, 6] of 23 nM, a microsomal CLint [2] of 488 µL/min/mg and a microsomal CLint [3] of 366 µL/min/mg. The solubility kinetic at 120 min [4] was 7 µM (≈ 2.85 µg/mL).
Compound Cn1cc([C@@H](Nc2cc(-c3ccc4ccn(C)c4c3)c3nccnc3c2)c2nccn2C)cn1 (single isomer, unassigned) [Example 15] has an IC50 [1, 5] of 560 nM, a microsomal CLint [2] of 88 µL/min/mg and a microsomal CLint [3] of 76 µL/min/mg. The solubility kinetic at 120 min [4] was 48 µM (≈ 21.5 µg/mL).
CC(C)[C@@H](Nc1cc(-c2ccc3ccn(C)c3c2)c2nccnc2c1)c1cccnc1 (single isomer, unassigned) [Example 20] showed an IC50 [1, 5] of 33 nM, a microsomal CLint [2] of over 500 µL/min/mg and a microsomal CLint [3] of over 500 µL/min/mg. For the same compound, the solubility kinetic at 120 min [4] was 6 µM (≈ 2.45 µg/mL).
Work on Cn1cc([C@H](Nc2cc(-c3ccc4ccn(C)c4c3)c3nccnc3c2)c2nccn2C)cn1 (single isomer, unassigned) [Example 14] yielded an IC50 [1, 5] of 640 nM, a microsomal CLint [2] of 67 µL/min/mg and a microsomal CLint [3] of 57 µL/min/mg. It also gave a solubility kinetic at 120 min [4] of 36 µM (≈ 16.1 µg/mL).
With Cn1ccc2ccc(-c3cc(NC(c4cccnc4)c4ccc(=O)[nH]n4)cc4nccnc34)cc21 (single isomer, unassigned) [Example 3] the IC50 [1, 5] was 180 nM, the “CLint Mouse” value ([2]; mouse liver microsomes) was 92 μl/min/mg prot and the “CLint Human” value ([3]; human liver microsomes) was 61 μl/min/mg prot. It also gave a Kinetic solubility ([4]; 120 minutes) of 64 µM.
For Cn1ccc([C@@H](Nc2cc(-c3ccc4ccn(C)c4c3)c3nccnc3c2)c2cnnn2C)n1 (single isomer, unassigned) [Example 29], the IC50 [1, 5] was 22 nM, the microsomal CLint [2] was 69 µL/min/mg and the microsomal CLint [3] was 51 µL/min/mg. It also gave a solubility kinetic at 120 min [4] of 108 µM (≈ 48.5 µg/mL).
Work on Cn1cc([C@@H](Nc2cc(-c3ccc4ccn(C)c4c3)c3nccnc3c2)c2cnnn2C)cn1 (single isomer, unassigned) [Example 9] yielded an IC50 [1, 5] of 87 nM, a microsomal CLint [2] of 146 µL/min/mg and a microsomal CLint [3] of 52 µL/min/mg. For the same compound, the solubility kinetic at 120 min [4] was 110 µM (≈ 49.4 µg/mL).
COc1ccc([C@H](Nc2cc(-c3ccc4ccn(C)c4c3)c3nccnc3c2)c2cnnn2C)cn1 [Comparative Example 2, N—[(S)-(6-methoxypyridin-3-yl)(1-methyl-1H-1,2,3-triazol-5-yl)methyl]-8-(1-methyl-1H-indol-6-yl)quinoxalin-6-amine, reference compound] gave an IC50 [1, 5] of 3.5 nM, a microsomal CLint [2] of 134 µL/min/mg and a microsomal CLint [3] of 113 µL/min/mg. The solubility kinetic at 120 min [4] was 22 µM (≈ 10.5 µg/mL).
Work on COc1ccc([C@@H](Nc2cc(-c3ccc4ccn(C)c4c3)c3nccnc3c2)c2cnnn2C)cn1 [Comparative Example 3, N—[(R)-(6-methoxypyridin-3-yl)(1-methyl-1H-1,2,3-triazol-5-yl)methyl]-8-(1-methyl-1H-indol-6-yl)quinoxalin-6-amine, reference compound] yielded an IC50 [1, 5] of 530 nM, a microsomal CLint [2] of 287 µL/min/mg and a microsomal CLint [3] of 267 µL/min/mg. For the same compound, the solubility kinetic at 120 min [4] was 22 µM (≈ 10.5 µg/mL).
Cn1cc([C@@H](Nc2cc(-c3ccc4ccn(C)c4c3)c3nccnc3c2)c2cncn2C)cn1 (single isomer, unassigned) [Example 12] gave an IC50 [1, 5] of 44 nM.
